The values below come from article PMC4579270, “Identification and Characterization of an Irreversible Inhibitor of CDK2” (Chemistry & Biology, 2015).

The structures appear in SMILES notation. Like-named read-outs stand apart in the source and are kept apart here.

What all share (assay): Dundee kinase screen re-test (standard format and 4 hour pre-incubation)
Common to all, as to format: biochemical

One assay deals with MLK1 (Homo sapiens, UniProt P80192). As to conditions: MLK1, 0.5µM. The protocol:
(§1) Prior to determining its cellular activity, we carried out a screen to assess its selectivity against a panel of 131 protein kinases under conditions that would not distinguish between a reversible or irreversible mode of action. […] These 13 kinases and 29 additional kinases, selected for their known sensitivity to other inhibitors within the purine series, were then tested in a modified screening format in which the assay was repeated following a 4-hr pre-incubation (Table S3B). […] However, conformational flexibility around the active site may promote such an interaction with a residue from another part of the structure ([Martin et al., 2012]).
(§2) Table S3, Related to Figure 4. NCL-0006300 protein kinase selectivity. […]
(§3) Dundee protein kinase screen (Bain et al., 2007). […]
(§4) (B) Selected kinases were re-tested in the Dundee kinase screen against NU6300 at a single concentration of 0.5 µM both in the standard assay format and following a 4 hour pre-incubation in the presence of NU6300. Kinases which have very low activity after the 4 hour incubation so that results might not be wholly reliable are boxed in salmon. Kinases where the activity after a 4 hour pre-incubation is < 50% that in the standard assay format are highlighted in red.

For a further assay, the target named is JAK2 (Homo sapiens, UniProt O60674). As to conditions: JAK2, 0.5µM. The method, then: as §1, §2, §3, §4
Another assay concerns the target JNK3 (Homo sapiens, UniProt P53779). As to conditions: JNK3, 0.5µM. The protocol:
as §1, §2, §3, §4

Another assay concerns the target T1, PDK1 (Homo sapiens, UniProt O15530).
T1 sequence (O15530 1-556): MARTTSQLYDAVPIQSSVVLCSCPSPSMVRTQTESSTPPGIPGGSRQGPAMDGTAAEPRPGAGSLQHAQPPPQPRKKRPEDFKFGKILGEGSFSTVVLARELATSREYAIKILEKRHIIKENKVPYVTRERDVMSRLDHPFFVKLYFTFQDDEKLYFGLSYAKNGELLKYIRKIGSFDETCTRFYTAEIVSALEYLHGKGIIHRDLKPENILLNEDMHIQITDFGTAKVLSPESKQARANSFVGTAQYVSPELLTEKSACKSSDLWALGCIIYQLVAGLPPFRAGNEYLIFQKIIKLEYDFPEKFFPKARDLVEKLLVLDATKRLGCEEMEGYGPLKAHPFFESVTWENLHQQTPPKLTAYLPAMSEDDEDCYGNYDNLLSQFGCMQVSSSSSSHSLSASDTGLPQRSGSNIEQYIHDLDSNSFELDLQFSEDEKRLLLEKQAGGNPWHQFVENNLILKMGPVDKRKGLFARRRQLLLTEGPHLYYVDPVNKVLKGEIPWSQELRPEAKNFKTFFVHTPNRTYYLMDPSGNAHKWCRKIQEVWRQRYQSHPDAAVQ
As to conditions: PDK1, 0.5µM. The protocol: as §1, §2, §3, §4

For another assay, the target named is T2, TTK (Homo sapiens, UniProt P33981).
T2 sequence (P33981 1-857): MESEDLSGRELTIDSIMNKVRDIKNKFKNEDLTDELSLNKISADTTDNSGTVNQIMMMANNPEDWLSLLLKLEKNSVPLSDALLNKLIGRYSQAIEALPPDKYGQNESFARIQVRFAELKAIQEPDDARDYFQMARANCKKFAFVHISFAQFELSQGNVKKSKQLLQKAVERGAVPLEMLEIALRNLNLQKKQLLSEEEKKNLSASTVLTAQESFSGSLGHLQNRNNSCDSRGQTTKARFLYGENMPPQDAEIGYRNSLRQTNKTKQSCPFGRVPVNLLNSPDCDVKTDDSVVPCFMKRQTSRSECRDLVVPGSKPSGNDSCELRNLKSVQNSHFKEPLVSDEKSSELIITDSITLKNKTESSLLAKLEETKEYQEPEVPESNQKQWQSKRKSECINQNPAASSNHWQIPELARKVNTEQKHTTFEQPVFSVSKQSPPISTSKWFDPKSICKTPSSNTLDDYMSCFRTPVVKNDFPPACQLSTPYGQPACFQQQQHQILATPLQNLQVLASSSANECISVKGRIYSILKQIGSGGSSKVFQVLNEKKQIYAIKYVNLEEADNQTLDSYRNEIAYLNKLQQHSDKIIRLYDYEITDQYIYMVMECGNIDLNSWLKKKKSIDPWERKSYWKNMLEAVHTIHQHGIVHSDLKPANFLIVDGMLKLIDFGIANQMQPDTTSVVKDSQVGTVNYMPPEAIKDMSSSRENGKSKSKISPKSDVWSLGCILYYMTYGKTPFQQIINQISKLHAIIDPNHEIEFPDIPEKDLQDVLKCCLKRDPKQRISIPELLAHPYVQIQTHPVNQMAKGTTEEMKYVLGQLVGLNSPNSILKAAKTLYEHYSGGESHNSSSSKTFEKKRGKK
The protocol: as §1, §2, §3, §4

A further assay has as its target CLK2 (Homo sapiens, UniProt P49760). As to conditions: CLK2, 0.5µM. The protocol:
as §1, §2, §3, §4

For another assay, the target named is IR (Homo sapiens, UniProt P06213). The protocol: as §1, §2, §3, §4
The next assay addresses MLK3 (Homo sapiens, UniProt Q16584). As to conditions: MLK3, 0.5µM. The method, then: as §1, §2, §3, §4
The next assay deals with PAK4 (Homo sapiens, UniProt O96013). As to conditions: PAK4, 0.5µM. The method, then:
as §1, §2, §3, §4

Where [1] appears, read: 4hr RT preincubation, read-out: %Remaining activity at 0.5µM NU6300 - 4hr RT preincubation.
The mark [2] stands for this setting: usual format, read-out: %Remaining activity at 0.5µM NU6300 - Usual assay format.

Chain of JAK2 (O60674 whole entry): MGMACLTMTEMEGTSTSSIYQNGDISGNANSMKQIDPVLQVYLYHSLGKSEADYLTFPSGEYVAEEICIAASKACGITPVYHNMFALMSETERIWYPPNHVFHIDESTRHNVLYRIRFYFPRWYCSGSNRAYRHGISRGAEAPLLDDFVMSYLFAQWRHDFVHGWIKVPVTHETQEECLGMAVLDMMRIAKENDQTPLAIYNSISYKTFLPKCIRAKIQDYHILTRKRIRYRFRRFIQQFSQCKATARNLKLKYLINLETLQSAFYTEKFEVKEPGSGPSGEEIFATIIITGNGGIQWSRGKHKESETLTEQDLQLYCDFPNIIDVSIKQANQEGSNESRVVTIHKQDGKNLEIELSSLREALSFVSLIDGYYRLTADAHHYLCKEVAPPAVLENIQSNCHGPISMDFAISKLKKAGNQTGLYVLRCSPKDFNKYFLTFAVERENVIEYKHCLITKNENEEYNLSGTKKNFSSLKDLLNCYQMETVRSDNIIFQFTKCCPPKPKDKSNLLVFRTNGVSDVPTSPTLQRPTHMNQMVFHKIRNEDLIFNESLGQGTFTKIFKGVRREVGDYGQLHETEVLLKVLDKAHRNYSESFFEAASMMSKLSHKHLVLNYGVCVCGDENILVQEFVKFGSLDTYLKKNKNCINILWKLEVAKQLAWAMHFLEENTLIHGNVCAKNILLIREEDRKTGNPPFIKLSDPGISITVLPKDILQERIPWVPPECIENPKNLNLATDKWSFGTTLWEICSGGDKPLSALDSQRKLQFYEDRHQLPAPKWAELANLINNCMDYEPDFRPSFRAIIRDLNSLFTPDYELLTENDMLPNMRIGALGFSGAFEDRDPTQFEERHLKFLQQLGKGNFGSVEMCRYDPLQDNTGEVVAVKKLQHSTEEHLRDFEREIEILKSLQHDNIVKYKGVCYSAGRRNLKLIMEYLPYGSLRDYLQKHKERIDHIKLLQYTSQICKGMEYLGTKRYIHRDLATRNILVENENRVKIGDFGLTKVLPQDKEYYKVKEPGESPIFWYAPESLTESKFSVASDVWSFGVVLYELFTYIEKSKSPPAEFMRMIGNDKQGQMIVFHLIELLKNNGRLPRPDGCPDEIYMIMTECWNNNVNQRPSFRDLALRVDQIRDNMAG
Chain of CLK2 (P49760 whole entry): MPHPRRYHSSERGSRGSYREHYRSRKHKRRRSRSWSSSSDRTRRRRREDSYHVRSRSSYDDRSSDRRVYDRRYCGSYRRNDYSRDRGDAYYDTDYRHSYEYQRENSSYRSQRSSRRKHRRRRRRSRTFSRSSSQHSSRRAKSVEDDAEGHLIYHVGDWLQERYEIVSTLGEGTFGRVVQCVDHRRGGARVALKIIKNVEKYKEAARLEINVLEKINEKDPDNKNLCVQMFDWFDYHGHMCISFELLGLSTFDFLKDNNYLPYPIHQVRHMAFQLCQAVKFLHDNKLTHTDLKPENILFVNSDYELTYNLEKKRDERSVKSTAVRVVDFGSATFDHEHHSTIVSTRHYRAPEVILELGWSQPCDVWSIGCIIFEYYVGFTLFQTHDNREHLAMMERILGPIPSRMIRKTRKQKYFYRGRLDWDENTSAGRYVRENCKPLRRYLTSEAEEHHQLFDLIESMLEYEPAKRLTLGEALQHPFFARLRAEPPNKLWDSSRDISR
Chain of JNK3 (P53779 whole entry): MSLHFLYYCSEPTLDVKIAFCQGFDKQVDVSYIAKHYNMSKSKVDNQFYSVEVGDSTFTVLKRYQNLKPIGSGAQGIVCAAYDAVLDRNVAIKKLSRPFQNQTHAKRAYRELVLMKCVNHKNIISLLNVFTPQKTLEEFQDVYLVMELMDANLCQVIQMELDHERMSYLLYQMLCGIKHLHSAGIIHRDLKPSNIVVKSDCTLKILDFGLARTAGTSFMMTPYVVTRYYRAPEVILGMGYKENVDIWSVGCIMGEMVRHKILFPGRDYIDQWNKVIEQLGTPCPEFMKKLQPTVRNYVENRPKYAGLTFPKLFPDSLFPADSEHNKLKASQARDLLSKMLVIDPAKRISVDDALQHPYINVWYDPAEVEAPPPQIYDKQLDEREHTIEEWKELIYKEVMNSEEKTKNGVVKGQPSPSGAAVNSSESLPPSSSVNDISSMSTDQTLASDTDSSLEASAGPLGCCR
Chain of MLK1 (P80192 whole entry): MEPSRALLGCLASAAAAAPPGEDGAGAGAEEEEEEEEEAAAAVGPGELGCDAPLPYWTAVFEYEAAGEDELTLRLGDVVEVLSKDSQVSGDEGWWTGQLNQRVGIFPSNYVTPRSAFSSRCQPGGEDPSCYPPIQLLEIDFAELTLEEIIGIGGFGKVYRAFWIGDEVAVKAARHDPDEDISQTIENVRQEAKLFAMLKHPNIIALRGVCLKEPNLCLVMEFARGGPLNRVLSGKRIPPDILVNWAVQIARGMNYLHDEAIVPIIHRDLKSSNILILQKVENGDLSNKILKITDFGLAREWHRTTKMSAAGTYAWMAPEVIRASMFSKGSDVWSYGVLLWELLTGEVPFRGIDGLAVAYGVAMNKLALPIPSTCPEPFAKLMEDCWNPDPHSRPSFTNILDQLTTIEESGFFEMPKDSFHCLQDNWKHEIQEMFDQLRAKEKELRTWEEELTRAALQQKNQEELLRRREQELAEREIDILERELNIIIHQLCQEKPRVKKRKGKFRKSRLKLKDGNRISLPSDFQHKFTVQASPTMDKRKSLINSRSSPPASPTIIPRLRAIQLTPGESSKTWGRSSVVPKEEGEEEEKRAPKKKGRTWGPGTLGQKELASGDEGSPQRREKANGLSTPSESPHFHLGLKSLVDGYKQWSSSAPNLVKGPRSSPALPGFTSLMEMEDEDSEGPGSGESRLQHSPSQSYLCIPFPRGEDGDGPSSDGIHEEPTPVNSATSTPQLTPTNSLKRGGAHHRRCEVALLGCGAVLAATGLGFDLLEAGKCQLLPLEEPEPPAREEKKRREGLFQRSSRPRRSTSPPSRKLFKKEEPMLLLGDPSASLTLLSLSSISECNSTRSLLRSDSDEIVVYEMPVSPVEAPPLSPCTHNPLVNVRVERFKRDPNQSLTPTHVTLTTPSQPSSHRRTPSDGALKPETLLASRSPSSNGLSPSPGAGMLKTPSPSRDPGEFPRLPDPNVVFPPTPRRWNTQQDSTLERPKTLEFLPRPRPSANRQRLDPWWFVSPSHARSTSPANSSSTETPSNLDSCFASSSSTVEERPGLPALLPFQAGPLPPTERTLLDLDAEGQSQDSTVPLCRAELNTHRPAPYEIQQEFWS
Chain of PAK4 (O96013 whole entry): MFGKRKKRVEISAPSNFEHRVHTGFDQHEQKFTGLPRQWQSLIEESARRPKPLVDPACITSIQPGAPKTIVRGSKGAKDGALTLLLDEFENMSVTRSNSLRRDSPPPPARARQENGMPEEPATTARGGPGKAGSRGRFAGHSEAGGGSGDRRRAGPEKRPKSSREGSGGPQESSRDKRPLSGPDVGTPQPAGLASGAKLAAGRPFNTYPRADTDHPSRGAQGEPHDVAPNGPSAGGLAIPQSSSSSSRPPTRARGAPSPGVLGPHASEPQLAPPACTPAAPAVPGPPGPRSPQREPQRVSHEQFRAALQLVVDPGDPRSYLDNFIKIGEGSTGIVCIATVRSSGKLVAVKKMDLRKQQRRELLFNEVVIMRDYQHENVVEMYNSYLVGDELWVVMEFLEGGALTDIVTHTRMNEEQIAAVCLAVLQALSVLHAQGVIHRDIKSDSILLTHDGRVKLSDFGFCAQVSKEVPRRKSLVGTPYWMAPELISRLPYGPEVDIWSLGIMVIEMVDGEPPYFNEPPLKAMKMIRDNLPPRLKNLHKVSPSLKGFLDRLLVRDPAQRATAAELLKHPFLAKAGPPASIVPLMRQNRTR
Chain of MLK3 (Q16584 whole entry): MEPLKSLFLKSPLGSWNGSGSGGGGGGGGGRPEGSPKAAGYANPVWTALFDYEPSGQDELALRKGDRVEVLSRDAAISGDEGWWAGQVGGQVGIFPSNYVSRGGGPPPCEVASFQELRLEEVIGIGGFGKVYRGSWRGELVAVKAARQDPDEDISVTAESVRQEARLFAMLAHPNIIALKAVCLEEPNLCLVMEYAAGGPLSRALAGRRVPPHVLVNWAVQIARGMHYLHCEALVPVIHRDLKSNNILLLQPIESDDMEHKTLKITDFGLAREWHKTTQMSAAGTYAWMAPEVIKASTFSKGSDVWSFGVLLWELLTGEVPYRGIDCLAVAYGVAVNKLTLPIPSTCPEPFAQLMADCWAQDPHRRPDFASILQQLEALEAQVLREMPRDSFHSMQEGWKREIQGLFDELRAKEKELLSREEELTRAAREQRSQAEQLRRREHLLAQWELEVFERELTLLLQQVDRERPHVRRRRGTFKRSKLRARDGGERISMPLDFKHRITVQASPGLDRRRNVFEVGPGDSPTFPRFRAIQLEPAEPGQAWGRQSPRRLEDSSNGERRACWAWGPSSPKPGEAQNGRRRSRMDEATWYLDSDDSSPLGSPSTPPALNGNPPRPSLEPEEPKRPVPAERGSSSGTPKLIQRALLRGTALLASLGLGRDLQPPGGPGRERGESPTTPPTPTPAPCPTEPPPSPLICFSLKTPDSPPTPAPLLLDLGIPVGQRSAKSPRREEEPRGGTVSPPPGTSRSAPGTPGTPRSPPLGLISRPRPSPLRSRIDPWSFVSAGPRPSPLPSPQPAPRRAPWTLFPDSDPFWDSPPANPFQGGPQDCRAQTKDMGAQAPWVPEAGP

In the case of `C=CS(=O)(=O)c1ccc(Nc2nc(OCC3CCCCC3)c3nc[nH]c3n2)cc1` [NU6300, 6-(cyclohexylmethoxy)-N-(4-(vinylsulfonyl)phenyl)-9H-purin-2-amine], the remaining activity (in general, the signal under treatment as a percentage of the control signal) at 0.5 µM at MLK1 (setting [1]) was determined as 29%; at MLK1 (setting [2]), 4%; on JAK2 (setting [1]) it was 7%; on JAK2 (setting [2]), 9%; at JNK3 (setting [1]) it was 98%; on JNK3 (setting [2]), 53%. Also, the remaining activity at 0.5 µM was 40% at PDK1 (setting [1]); 29% at PDK1 (setting [2]); 47% on TTK (setting [1]); 41% at TTK (setting [2]); 104% at CLK2 (setting [1]); 35% at CLK2 (setting [2]). In addition, the remaining activity at 0.5 µM on IR (setting [1]) worked out at 58%; on IR (setting [2]), 48%; at MLK3 (setting [1]) it was 52%; at MLK3 (setting [2]) it was 5%; on PAK4 (setting [1]), 82%; at PAK4 (setting [2]) it was 34%.
